Measurements reported in patent publication US20080039442A1, “Compounds With Kv4 Ion Channel Activity” (Devgen NV, priority 2004, published 2008).

Target: T1, Kv1.5 potassium channel (Homo sapiens, UniProt P22460)
T1 construct: expressed in transfected cells
Test: Patch clamp, CHO cells stably expressing Kv1.5
Type: cell-based
Experimental: The cDNA coding for Kv1.5 (GenBank Acc. No. M55513) was cloned into the pcDNA6-vector (Invitrogen, Leek, Netherlands). A C-terminal epitope-tag was introduced via PCR. The plasmid was sequenced and subsequently introduced into cells. Clonal cell lines stably expressing the Kv1.5 channel were established. Expression of protein was analysed by means of immunofluorescence using antibodies directed against the epitope-tag. The functional expression of the ion channels was validated electrophysiologically.
The experiments were performed using CHO cells stably expressing the Kv 1.5 potassium channel.
Cells were grown at 37° C. and 5% CO2 in 25 ml flasks (Greiner Bioone, Cellstar, Cat. No. 690160) in 6 ml MEM ALPHA Medium (Sigma, Taufkirchen, Germany, Cat No M8042) supplemented with 10% (v/v) heat inactivated fetal calf serum (Sigma, Cat. No. F9665), 1% (v/v) P/S/G-solution (Sigma, Cat. No. G6784) and G-418 (750 μg per millilitre medium; Sigma, Germany, Cat. No. A1720; 50 mg/ml in water, Sigma, Germany, Cat. No. W3500).
From a HP of −60 mV cells were hyperpolarised for 100 ms to −70 mV, followed by a 500 ms depolarisation to +50 mV. The current amplitude at the end of the test pulse to +50 mV was used for the analysis. Pulse cycling rate was 10 s (0.1 Hz).
The application protocol of test compounds is depicted in FIG. 4. The first 14 stimuli were required to achieve steady state of the current amplitude. Unspecific current reduction was calculated and served for correcting procedures during data analysis. After the 14th stimulus the test compound application was started (indicated by an arrow) via teflon and silicone tubings and was assumed to reach the cell after 6 additional stimuli. The perfusion is adjusted by using a defined drop rate of 10 drops per 10-12 s. Up to three concentrations were applied successively to one cell followed by a wash period of 5 minutes. Total number of stimuli was 140. Effect of the test compound was analysed between stimulus nos. 21 and 50 (5 min., long dashed line) for the first concentration, between stimulus nos. 51 and 80 (5 min., short dashed line) for an additional 5 minutes. If the cell was still stable, a wash was added afterwards. Start of test compound application at the given concentration is indicated by arrows. Number of stimuli of each single episode are shown in the protocol of FIG. 4.
Vehicle (DMSO) control experiments were performed during study period and under identical conditions to verify the stability of current over time and to value cell condition.
The effects of the test compounds were investigated at one concentration (2 or 1 μM) on the Kv1.5-mediated potassium channel.

[1] = concentration cell empty (text: 2 or 1 μM)

T1 sequence (P22460 whole entry): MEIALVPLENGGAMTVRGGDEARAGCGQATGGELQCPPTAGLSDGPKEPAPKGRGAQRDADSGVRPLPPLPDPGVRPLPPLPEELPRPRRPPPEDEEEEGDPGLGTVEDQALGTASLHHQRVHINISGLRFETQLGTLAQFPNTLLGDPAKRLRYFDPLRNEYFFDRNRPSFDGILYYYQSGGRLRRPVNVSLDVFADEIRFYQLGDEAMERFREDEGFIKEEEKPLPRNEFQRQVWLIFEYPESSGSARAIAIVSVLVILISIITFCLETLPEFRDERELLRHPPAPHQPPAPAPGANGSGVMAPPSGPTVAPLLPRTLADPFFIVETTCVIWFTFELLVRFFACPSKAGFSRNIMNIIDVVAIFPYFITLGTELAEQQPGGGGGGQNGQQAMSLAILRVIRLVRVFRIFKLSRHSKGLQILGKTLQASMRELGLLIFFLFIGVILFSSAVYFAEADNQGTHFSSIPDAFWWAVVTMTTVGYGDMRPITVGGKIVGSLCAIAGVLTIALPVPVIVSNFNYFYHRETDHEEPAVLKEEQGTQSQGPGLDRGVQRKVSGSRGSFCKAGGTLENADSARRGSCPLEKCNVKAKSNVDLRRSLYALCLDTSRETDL

| Molecule | Relative remaining current (mean after 8-10 min) [1] [%] | Relative remaining current (mean after 8-10 min) (2 μM, fraction, % in brackets) | Relative remaining current (mean after 5 min) (2 μM, fraction, % in brackets) |
| --- | --- | --- | --- |
| Cc1c(C(=O)NCc2ccc(F)c(C(F)(F)F)c2)sc2ccc(Cl)cc12 [Compound 107, 5-chloro-3-methyl-benzo[b]thiophene-2-carboxylic acid 4-fluoro-3-trifluoromethyl-benzylamide] | 89 |  |  |
| O=C(NCc1ccc(OC(F)(F)F)cc1)c1cc2cc(Cl)ccc2o1 [Compound 89, 5-chloro-benzofuran-2-carboxylic acid 4-trifluoromethoxy-benzylamide] | 82 |  |  |
| 5-chloro-benzofuran-2- carboxylic acid 2,4- dimethoxy- benzylamide [Compound 2] |  | 0.66 (66%) | 0.88 (88%) |
